Measured values from US4353904A, “Phenylpiperazine derivatives of 1,3,4-oxadiazolylphenols, and therapeutic agents containing these compounds” (BASF Aktiengesellschaft, priority 1980, dated 1982).

Tests used:
blood pressure = experiment: Hypotensive action in rats under urethane narcosis (carotid artery blood pressure, intravenous administration); type: in vivo, male Sprague-Dawley rats; settings: rat; for ED20: iv, urethane narcosis 1.78 g/kg i.p., compound i.v. into jugular vein, read-out: Hypotensive action ED 20% (dose which caused a 20% reduction in blood pressure); for Hypotensive action R.A. (relative activity, Urapidil = 1.00): urethane narcosis, i.v., relative to Urapidil = 1.00
Experimental: Male Sprague-Dawley rats weighing 220-280 g were used, under urethane narcosis (1.78 g/kg, administered intraperitoneally) for the investigation. The blood pressure was measured directly in the carotid artery. The compound was administered intravenously into the jugular vein. The dose (mg/kg) which caused a 20% reduction in blood pressure was determined as the ED 20%. | ^(1) Rat. Urethane narcosis. Intravenous administration. | ^(2) Relative activity.

[1] = Acute toxicity, intraperitoneal administration; settings: in vivo, ip, mouse, groups of 10 female NMRI mice, read-out: Toxicity LD 50
Experimental: In addition to the hypotensive action, the acute toxicity (LD 50, mg/kg), for intraperitoneal administration, was determined for groups of 10 female NMRI mice, weighing 22-27 g.
^(3) Mouse. Intraperitoneal

[2] = Therapeutic range / therapeutic index (quotient of LD 50 and ED 20%); settings: in vivo; quotient of LD 50 (mouse i.p.) and ED 20% (rat i.v.)
Description: The therapeutic range is the quotient of the LD 50 and the ED 20%.

## COc1ccccc1N1CCN(CC(O)COc2ccccc2-c2nnc(C)o2)CC1 (stereo not shown) [Example 2]
Blood pressure
  ED20: 0.0221 mg/kg
  Hypotensive action R.A. (relative activity, Urapidil = 1.00): 8.55
[1]
  LD50: 56.2 mg/kg
[2]
  selectivity ratio: 2540

## COc1ccccc1N1CCN(CC(O)COc2cccc(-c3nnco3)c2)CC1 (stereo not shown) [Example 7, 1-[3-(1,3,4-Oxadiazol-2-yl)-phenoxy]-3-[4-(2-methoxyphenyl)piperazin-1-yl]-propan-2-ol]
Blood pressure
  ED20: 0.0754 mg/kg
  Hypotensive action R.A. (relative activity, Urapidil = 1.00): 2.51
[1]
  LD50: 215 mg/kg
[2]
  selectivity ratio: 2850

## CCOc1ccccc1N1CCN(CC(O)COc2cccc(-c3nnco3)c2)CC1 (stereo not shown) [Example 9, 1-[3-(1,3,4-Oxadiazol-2-yl)-phenoxy]-3-[4-(2-ethoxyphenyl)-piperazin-1-yl]-propan-2-ol]
Blood pressure
  ED20: 0.0084 mg/kg
  Hypotensive action R.A. (relative activity, Urapidil = 1.00): 22.50
[1]
  LD50: 215 mg/kg
[2]
  selectivity ratio: 25600

## COc1ccccc1N1CCN(CC(O)COc2cccc(-c3nnc(C)o3)c2)CC1 (stereo not shown) [Example 10, 1-[3-(5-Methyl-1,3,4-oxadiazol-2-yl)-phenoxy]-3-[4-(2-methoxyphenyl)-piperazin-1-yl]-propan-2-ol]
Blood pressure
  ED20: 0.0333 mg/kg
  Hypotensive action R.A. (relative activity, Urapidil = 1.00): 5.68
[1]
  LD50: 224 mg/kg
[2]
  selectivity ratio: 6730

## CCOc1ccccc1N1CCN(CC(O)COc2cccc(-c3nnc(C)o3)c2)CC1 (stereo not shown) [Example 12, 1-[3-(5-Methyl-1,3,4-oxadiazol-2-yl)-phenoxy]-3-[4-(2-ethoxyphenyl)-piperazin-1-yl]-propan-2-ol]
Blood pressure
  ED20: 0.0195 mg/kg
  Hypotensive action R.A. (relative activity, Urapidil = 1.00): 9.69
[1]
  LD50: 162 mg/kg
[2]
  selectivity ratio: 8300

## Cc1nnc(-c2cccc(OCC(O)CN3CCN(c4ccccc4Cl)CC3)c2)o1 (stereo not shown) [Example 16, 1-[3-(5-Methyl-1,3,4-oxadiazol-2-yl)-phenoxy]-3-[4-(2-chlorophenyl)-piperazin-1-yl]-propan-2-ol]
Blood pressure
  ED20: 0.0716 mg/kg
  Hypotensive action R.A. (relative activity, Urapidil = 1.00): 2.64
[1]
  LD50: 178 mg/kg
[2]
  selectivity ratio: 2490

## COc1ccccc1N1CCN(CCCNc2cc(=O)n(C)c(=O)n2C)CC1 [Urapidil, 6-{3-[4-(2-methoxyphenyl)-piperazin-1-yl]-propylamino}-1,3-dimethyluracil, reference compound]
Blood pressure
  ED20: 0.189 mg/kg
  Hypotensive action R.A. (relative activity, Urapidil = 1.00): 1.00
[1]
  LD50: 362 mg/kg
[2]
  selectivity ratio: 1920
